Legend:
Format in all cases: cell-based, human
PC-3 cells = assay: RNASE4-induced cell proliferation (MTT assay)
Procedure: FIGS. 11A-F. RNASE4 induces PC-3 cell proliferation and phosphorylation of AKT and S6. (A) Exogenous RNASE4 (1 μg/ml) stimulates PC-3 cells proliferation in the presence of 2% FBS. Cell numbers were determined by MTT assay. (B) Time course of AKT and S6 phosphorylation of serum-starved PC-3 cells by RNASE4 (1 μg/ml). Left panels, immunoblots; right panels, quantification of p-AKT and p-S6 normalized to total AKT and S6 by Image J. (C) Effect of AKT inhibitor MK-2206, PI3K inhibitors LY294002 and Wortmannin, and mTOR inhibitor Rapamycin on RNASE4-induced PC-3 cell proliferation. Cells were pre-incubated with the inhibitors at the indicated concentrations for 1 hour prior to be stimulated by RNASE4 (1 μg/ml) for 3 days. Cell numbers were determined by MTT assay. (D) Human phospho-RTK antibody array analysis of starved PC-3 cells treated with or without 1 μg/ml RNASE4 for 5 minutes. (E) Time course of AXL phosphorylation stimulated by RNASE4 in PC-3 cells. Serum-starved PC-3 cells were treated with 1 μg/ml RNASE4 for different time. Cell lysates were analyzed for total AXL and phopho-AXL by immunoblotting. Left panels, immunoblots; right panel, quantification phospho-AXL normalized to total AXL by Image J analysis. (F) Effect of AXL inhibitor R428 on RNASE4-induced PC-3 cell proliferation. Serum-starved PC-3 cells were incubated with 1 or 3 μM R428 for 3 hours and then stimulated by 1 μg/ml of RNASE4 for 3 days. Cell numbers were determined by MTT assay. Data shown are means±SEM of a representative experiments in triplicates of 3 independent repeats. **P≤0.01 and ***P≤0.001, by unpaired two-tailed Student's t test.

[1] = tested on: AKT and S6 phosphorylation in DU145 cells; assay: RNASE4-induced phosphorylation of AKT and S6 (immunoblot); details: then 1 μg/ml RNASE4 5 minutes
Procedure: (§1) FIGS. 10A-E. RNASE4 induces prostate cancer cell proliferation and phosphorylation of AKT and S6. (A and B) Exogenous RNASE4 (1 μg/ml) stimulates cell proliferation (A) and cell cycle progression (B) of DU145 cells cultured in the presence of 2% FBS. Cell numbers were determined by MTT assay. Cell cycle status was determined by flow cytometry after 24 hour incubation with RNASE4. (C) Time course of AKT and S6 phosphorylation of serum-starved DU145 cells by RNASE4 (1 μg/ml). Left panels, immunoblots; right panels, quantification of p-AKT and p-S6 normalized to total AKT and S6 by Image J analysis. […] Cells were pre-incubated with the inhibitors at the indicated concentrations for 1 hour prior to be stimulated by 1 μg/ml of RNASE4 for 5 minutes. Top panels, immunoblots; bottom panels, Image J quantification of p-AKT and p-S6 normalized to total AKT and S6. (E) Effect of AKT inhibitor MK-2206, PI3K inhibitors Wortmannin and LY294002, and mTOR inhibitor Rapamycin on RNASE4-induced cell proliferation. DU145 cells were serum-starved overnight, incubated with the inhibitors for 1 hour, and then treated with RNASE4 (1 μg/ml) for three days. Cell numbers were determined by MTT assay. Data shown are from a representative experiments in triplicates of 3 independent repeats. Error bars indicate SEM. **P≤0.01, by unpaired two-tailed Student's t test.
(§2) FIGS. 12A-F. RNASE4 induces AXL phosphorylation. (A) Human phospho-receptor tyrosine kinase (RTK) antibody array analysis. Serum-starved DU145 cells were treated with or without 1 μg/ml of RNASE4 for 5 minutes. A total of 1.5 mg cell lysate protein was blotted on each array membrane. […] (B) Immunoblot analysis of RNASE4-stimulated AXL phosphorylation. DU145 cells were serum-starved overnight and treated with 1 μg/ml of RNASE4 for the indicated time. Cell lysates were analyzed by antibodies against total AXL and phospho-AXL, with β-actin as the loading control. Left panels, immunoblots; right panel, Image J quantification of p-AXL normalized to total AXL. (C) Immunoblot analysis of phospho-AXL in response to stimulation by ANG, RNase A, and RNASE4. DU145 cells were serum-starved overnight and treated with 1 μg/ml of ANG, RNase A, or RNASE4 for 15 minutes. Left panels, immunoblots; right panel, quantification. (D) Effect of AXL inhibitor R428 on RNASE4-induced cell proliferation. Serum-starved DU145 cells were incubated with 1 or 3 μM R428 for 3 hours and then stimulated by 1 μg/ml of RNASE4 for 3 days. Cell numbers were determined by MTT assay. Data shown are means±SEM of a representative experiment (in triplicates) of 3 independent repeats. **P≤0.01 and ***P≤0.001, by unpaired two-tailed Student's t test. (E) Effect of AXL inhibitor R428 on RNASE4-induced AKT and P6 phosphorylation. Serum-starved DU145 cells were incubated with 1 or 3 μM R428 for 3 hours and then stimulated by 1 μg/ml of RNASE4 for 5 minutes. Cell lysates were analyzed for AKT and P6 phosphorylation by immunoblotting. Top panels, immunoblots; bottom panels, quantification of phospho-AKT and phospho-S6 by Image J analyses normalized to total AKT and P6, respectively. (F) Schematic presentation of proposed involvement of AXL in RNASE4-stimulated cellular events.

DU145 cells = assay: RNASE4-induced cell proliferation (MTT assay)
Procedure: as §1
FIGS. 12A-F. RNASE4 induces AXL phosphorylation. (A) Human phospho-receptor tyrosine kinase (RTK) antibody array analysis. Serum-starved DU145 cells were treated with or without 1 μg/ml of RNASE4 for 5 minutes. […] Cell lysates were analyzed by antibodies against total AXL and phospho-AXL, with β-actin as the loading control. Left panels, immunoblots; right panel, Image J quantification of p-AXL normalized to total AXL. […] Left panels, immunoblots; right panel, quantification. […] Cell numbers were determined by MTT assay. […] Cell lysates were analyzed for AKT and P6 phosphorylation by immunoblotting. Top panels, immunoblots; bottom panels, quantification of phospho-AKT and phospho-S6 by Image J analyses normalized to total AKT and P6, respectively. […]

[2] = tested on: AXL phosphorylation in DU145 cells; assay: AXL phosphorylation (phospho-RTK array, immunoblot); details: serum-starved DU145, 1 μg/ml protein
Procedure: as §2
Human Phospho-RTK Arrays were purchased from R&D Systems. […] Protein concentrations were quantified by Bradford Assay and 1.5 mg cell lysate was used per array. Pixel densities on were analyzed by ImageJ. […]

[3] = serum-starved DU145, 1 or 3 μM R428 3 hours

Nc1nc(Nc2ccc3c(c2)CCC(N2CCCC2)CC3)nn1-c1cc2c(nn1)-c1ccccc1CCC2 (stereo not shown) [R428]
RNASE4-induced cell proliferation (PC-3 cells; serum-starved PC-3, 1 or 3 μM R428 3 hours, then 1 μg/ml RNASE4 3 days): inhibted | RNASE4-induced AKT phosphorylation [1, 3]: inhibted | RNASE4-induced S6 phosphorylation [1, 3]: inhibted | RNASE4-induced cell proliferation (DU145 cells; serum-starved DU145, 1 or 3 μM R428 3 hours, then 1 μg/ml RNASE4 3 days): inhibted

NC1(c2ccc(-c3nc4ccn5c(=O)[nH]nc5c4cc3-c3ccccc3)cc2)CCC1 [MK-2206]
RNASE4-induced cell proliferation (PC-3 cells; PC-3, inhibitor 1 hour, then RNASE4 1 μg/ml 3 days): abolished | RNASE4-induced AKT phosphorylation ([1]; DU145, inhibitor 1 hour): inhibited | RNASE4-induced S6 phosphorylation ([1]; DU145, inhibitor 1 hour): inhibited | RNASE4-induced cell proliferation (DU145 cells; serum-starved DU145, inhibitor 1 hour, then RNASE4 1 μg/ml three days): abolished

ANG: Angiogenin, another member of the pancreatic ribonuclease superfamily [reference compound]
phosphorylation of AXL [2]: do not induce

B1: RNase A: member of the pancreatic ribonuclease superfamily (protein, UniProt P61823 27-150, looked up)
Ribonuclease pancreatic: KETAAAKFERQHMDSSTSAASSSNYCNQMMKSRNLTKDRCKPVNTFVHESLADVQAVCSQKNVACKNGQTNCYQSYSTMSITDCRETGSSKYPNCAYKTTQANKHIIVACEGNPYVPVHFDASV
phosphorylation of AXL [2]: do not induce

From US11739161B2, “Methods for treating and diagnosing prostate cancer” (Tufts Medical Center, Inc., priority 2017, dated 2023)
